TGI and GI50 data for 16 compounds are collected here from PubChem BioAssay (NCI).

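Test compounds were applied to cells in 96-well plates for 48 hours at 5 doses. At the GI50, growth is halved. TGI denotes the concentration required for complete inhibition of growth.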

Test systems include NCI-H23 lung; A498 renal; 786-0 renal; UACC-62 melanoma; OVCAR-4 ovarian; U251 CNS; K-562 leukemia; MCF7 breast; NCI/ADR-RES ovarian.
Holding throughout (assay): DTP human tumour cell line panel, 48 h

In the case of `Cc1cccc(-c2nc(=S)[nH][nH]2)c1`, the total growth inhibition concentration (TGI) with NCI-H23 lung, in the assay with A498 renal, in the assay on 786-0 renal, in the assay with UACC-62 melanoma, with OVCAR-4 ovarian and in the assay on U251 CNS was > 100 µM throughout. The TGI (as a rule, the concentration giving total growth inhibition) in the assay with K-562 leukemia was > 100 µM.

For the compound `COc1ccc(-c2cc(=O)c3c(C)ccnc3[nH]2)cc1`, the TGI in the assay on NCI-H23 lung is 65.2 µM; with MCF7 breast, > 100 µM; with A498 renal, 41.4 µM; in the assay on 786-0 renal it was > 100 µM; in the assay on UACC-62 melanoma, 32.6 µM; in the assay with OVCAR-4 ovarian it was > 100 µM. The TGI in the assay on U251 CNS, with NCI/ADR-RES ovarian and in the assay with K-562 leukemia was > 100 µM throughout. In addition, the results for the GI50 with 786-0 renal and in the assay on U251 CNS were 25.3 µM and 6.3 µM, respectively.

For `O=C(c1ccccc1)[C@H]1Nc2ccc(Cl)cc2[C@H]2c3ccccc3O[C@H]21`, the TGI in the assay with NCI-H23 lung is 28.1 µM; with A498 renal, 24.5 µM; in the assay with 786-0 renal, 30.6 µM; in the assay with UACC-62 melanoma, 28.6 µM; in the assay on OVCAR-4 ovarian it was 32.3 µM; in the assay with U251 CNS, 29.2 µM. Moreover, in the assay with K-562 leukemia, the TGI is 36.7 µM.

On to `O=[N+]([O-])c1ccc(Cl)c(C2CC(c3cccc4ccccc34)=Nc3ccccc3S2=O)c1` (stereo not drawn), for which the total growth inhibition concentration (TGI) in the assay with NCI-H23 lung was 17.4 µM; in the assay on A498 renal, 64.7 µM; in the assay with 786-0 renal, 28.5 µM; with UACC-62 melanoma, 40.8 µM; in the assay on OVCAR-4 ovarian, > 84.2 µM; in the assay on U251 CNS, 20.2 µM. Also, the TGI in the assay with K-562 leukemia amounted to 37 µM.

`O=NN(CC1(O)OCC(O)C(O)C1O)C(Cc1c[nH]c2ccccc12)C(=O)O` (stereo not drawn): the TGI with NCI-H23 lung, with A498 renal, with 786-0 renal, in the assay on UACC-62 melanoma, in the assay on U251 CNS and in the assay with K-562 leukemia was > 100 µM throughout.

Consider `Cc1cc(C)c2c(c1)CSCc1cc(C)cc(C)c1-2`, for which the total growth inhibition concentration (TGI) in the assay on NCI-H23 lung is > 100 µM; in the assay on A498 renal, 79.9 µM; with 786-0 renal, > 100 µM; in the assay on UACC-62 melanoma, > 100 µM; in the assay on OVCAR-4 ovarian, > 100 µM; in the assay with U251 CNS, 40.5 µM. For the same compound, in the assay on K-562 leukemia, the TGI is > 100 µM.

For the compound `COC(=O)C1=C(C(=O)OC)C23CC4CCC2(C(=O)C1O3)C4(C)C` (stereo not drawn), the total growth inhibition concentration (TGI) with NCI-H23 lung, with A498 renal, with 786-0 renal, in the assay with UACC-62 melanoma, with OVCAR-4 ovarian and in the assay with U251 CNS was > 100 µM each time. For the same compound, in the assay on K-562 leukemia, the TGI is > 100 µM.

As for `O=C1CN=C(c2ccccc2)c2ccncc2N1`, the concentration for total growth inhibition (TGI) with NCI-H23 lung, in the assay on A498 renal, in the assay with 786-0 renal, with UACC-62 melanoma, in the assay on OVCAR-4 ovarian and with U251 CNS was > 100 µM each time. Besides, the TGI with K-562 leukemia is > 100 µM.

`CCOc1ccc2c(c1)[n+]([O-])c(C(N)=O)c(N)[n+]2[O-]`: the TGI in the assay with NCI-H23 lung, in the assay with A498 renal, with 786-0 renal, in the assay on OVCAR-4 ovarian, with U251 CNS and with K-562 leukemia was > 100 µM each time.

Consider `CN(N=O)C(=O)NC(CCCCNC(=O)OCc1ccccc1)C(=O)OCc1ccccc1` (stereo not drawn), for which the TGI was 51.3 µM with NCI-H23 lung; > 100 µM in the assay on A498 renal; 33.6 µM with 786-0 renal; 33.1 µM in the assay on UACC-62 melanoma; > 100 µM in the assay with OVCAR-4 ovarian; > 100 µM in the assay on U251 CNS. In the assay with K-562 leukemia, the concentration for total growth inhibition (TGI) is > 100 µM.

In the case of `Cc1cnoc1/N=C1\C=C(Nc2oncc2C)C(=O)c2ccccc21`, the TGI with NCI-H23 lung, in the assay with A498 renal, in the assay with 786-0 renal, in the assay with UACC-62 melanoma, in the assay with OVCAR-4 ovarian and in the assay with U251 CNS was > 100 µM each time. Besides, the TGI in the assay on K-562 leukemia was > 100 µM.

On to `COc1cccc2c1C(=O)c1c(O)c3c(c(O)c1C2=O)C[C@@](O)(/C(C)=N/NC(=O)c1cccc([N+](=O)[O-])c1)C[C@@H]3OC1CC(N)C(O)C(C)O1` (stereo partly drawn), for which the GI50 (commonly the concentration that inhibits growth by half) with NCI-H23 lung was 0.316 µM; in the assay on MCF7 breast it was 0.0613 µM; in the assay on A498 renal, 0.564 µM; in the assay with 786-0 renal, 0.306 µM; in the assay on UACC-62 melanoma, 0.199 µM; in the assay on OVCAR-4 ovarian, 0.65 µM. The GI50 in the assay on U251 CNS was 0.22 µM; with NCI/ADR-RES ovarian, 5.26 µM; in the assay on K-562 leukemia it was 0.356 µM. In addition, the total growth inhibition concentration (TGI) came to 2.87 µM in the assay on NCI-H23 lung; 18.5 µM in the assay on MCF7 breast; 2.23 µM with A498 renal; 5.68 µM in the assay with 786-0 renal; 1.5 µM in the assay with UACC-62 melanoma; 11.3 µM in the assay with OVCAR-4 ovarian. Further, the concentration for total growth inhibition (TGI) was found to be 14 µM with U251 CNS, 35.8 µM in the assay on NCI/ADR-RES ovarian and 5.16 µM in the assay with K-562 leukemia.

Take `CCOP(=O)(OCC)C(C(=O)OC)C(=O)C(=O)Nc1cccc([N+](=O)[O-])c1` (stereo not drawn): the concentration for total growth inhibition (TGI) in the assay with NCI-H23 lung, in the assay with A498 renal, in the assay on 786-0 renal, with UACC-62 melanoma, in the assay on OVCAR-4 ovarian and in the assay with U251 CNS was > 100 µM throughout. The TGI in the assay with K-562 leukemia is > 100 µM.

In the case of `CC1=NC2(C(=O)O)C3(C(=O)O)N=C(C)OC3(C(F)(F)F)C2(C(F)(F)F)O1` (stereo not drawn), the concentration for total growth inhibition (TGI) in the assay on NCI-H23 lung, in the assay with A498 renal, with 786-0 renal, in the assay with UACC-62 melanoma, with OVCAR-4 ovarian and with U251 CNS was > 100 µM each time. In addition, the concentration for total growth inhibition (TGI) in the assay on K-562 leukemia is > 100 µM.

As for `NCCNCCNCc1c2ccccc2c(CNCCNCCN)c2ccccc12`, the TGI with NCI-H23 lung, with 786-0 renal, in the assay with UACC-62 melanoma, in the assay on OVCAR-4 ovarian, in the assay with U251 CNS and with K-562 leukemia was > 100 µM each time.

In the case of `CS(=O)(=O)N(CCC#N)c1ccc(/C=C2\N=C(c3ccccc3Cl)OC2=O)cc1`, the TGI in the assay with NCI-H23 lung, in the assay with A498 renal, in the assay with 786-0 renal, with UACC-62 melanoma, in the assay with U251 CNS and with K-562 leukemia was > 100 µM each time.
